Results reported in paper PMC10287566, “Signaling-specific inhibition of the CB1 receptor for cannabis use disorder: phase 1 and phase 2a randomized trials” (Nature Medicine, 2023).
Read-outs that look alike come from different tables or passages of the source.

How the values were obtained:
[1] = Plasma and brain pharmacokinetics/toxicokinetics in rats; type: in vivo; conditions: for AUC(0-t) / Cmax / half-life / Tmax: rat, plasma; for AUC(0-t) / Cmax / half-life: po
Description: Blood samples were obtained from catheterized animals housed in Culex cages with an automated blood sampler—a robotic system designed to facilitate the sampling of whole blood from awake and freely moving rodents. At the last withdrawal timepoint (48 h after dosing), blood aliquots were manually collected from the femoral catheter. This experiment was performed by the CRO Oncodesign.
Blood was withdrawn by cardiac puncture, and the brains were harvested.
In both experiments, blood samples were centrifuged ~7 min at 1,600g (4 °C), and the plasma was collected. The brain was weighed and frozen on dry ice. Plasma and brain were stored below −70 °C until analysis.
For all studies in rats and the 91-d toxicity study in dogs, the timepoints on days 1, 28 and 91 were: before dose and 1, 3, 5, 8 and 24 h after dose. For the 28-d toxicity study in dogs, the timepoints on days 1 and 28 were: before dose and 1, 2, 4, 8, and 24 h after dose. In both species, only mean pre-dose plasma concentrations were calculated on day 14 for the 28-d study and on day 28 for the 91-d study. For the experiments in rats, blood samples for drug analysis were taken from the satellite animals used for the toxicokinetic (TK) analysis (n = 3 per sex per timepoint and per group). For experiments performed in dogs, blood samples were drawn from the cephalic or jugular veins of all animals (n = 3 per sex per group).
TK analysis was performed separately per sex on mean concentrations by a non-compartmental analysis (NCA). The linearity of exposure was evaluated by comparison of the AUC/dose and Cmax/dose ratios. Possible accumulation was evaluated from the ratio of AUC on day 28 and on day 1 for each dose level and each sex. Samples lower than the limit of quantification (LLQ) values (that is, < 8.00 ng ml^−1 in rats and <20.0 ng ml^−1 in dogs) were not included in the calculation of TK parameters.

85 receptors = experiment: Eurofins high-throughput binding screen; conditions: 10 µM
rats = experiment: 91-d repeated oral toxicity study in rats (GLP); type: in vivo; conditions: for change in blood urea level: male rats, week 14
[2] = 91-d repeated oral toxicity study in rats (GLP); type: in vivo; conditions: both sexes, Sprague Dawley SPF, rat, in vivo, rats
[3] = Sprague Dawley, 1.6 mg/kg, rats po 1.6 mg/kg single
[4] = both sexes, Sprague Dawley SPF, 20 mg/kg, rats po 20 mg/kg single, 91-day tox study
[5] = both sexes, Sprague Dawley SPF, 36 mg/kg, rats po 36 mg/kg single, 28-day tox study
[6] = both sexes, Sprague Dawley SPF, 65 mg/kg, rats po 65 mg/kg single, 91-day tox study
[7] = both sexes, Sprague Dawley, 2 mg/kg, rats po 2 mg/kg single, 28-day tox study
[8] = both sexes, Sprague Dawley, 2 mg/kg, rats po 2 mg/kg single, 91-day tox study

Work on COc1ccc(CO[C@H]2CC[C@@]3(C)C(=CC[C@H]4[C@@H]5CC[C@H](C(C)=O)[C@@]5(C)CC[C@@H]43)C2)cc1 [AEF0117, 3β-(4-methoxybenzyloxy)pregn-5-en-20-one] yielded an AUC(0-t) [1, 3] of 1060 ng·h/mL, a Cmax [1, 3] of 116 ng/mL and a half-life ([1]; Sprague Dawley, 1.6 mg/kg, rats po 1.6 mg/kg single, read-out: t½ (converted)) of 13.9 h. For the same compound, the half-life ([1]; Sprague Dawley, rats per os, read-out: half-life) was 7.3 to 15.8 h, the Tmax ([1]; Sprague Dawley, rats po 1.6 mg/kg single) was 4.1 h and the Tmax ([1]; Sprague Dawley, rats, oral, corn oil) was 3 h. It also gave an AUC(0-t) ([1]; both sexes, Sprague Dawley SPF, 9 mg/kg, rats po 9 mg/kg single, 28-day tox study) of 6150 ng·h/mL, a half-life ([1]; both sexes, Sprague Dawley SPF, 9 mg/kg, rats po 9 mg/kg single, 28-day tox study, read-out: t½ (converted)) of 11.7 h and an AUC(0-t) [1, 4] of 12700 ng·h/mL. The Cmax [1, 4] was 1060 ng/mL, the half-life ([1]; both sexes, Sprague Dawley SPF, 20 mg/kg, rats po 20 mg/kg single, 91-day tox study, read-out: t½ (converted)) was 7.6 h and the AUC(0-t) [1, 5] was 16500 ng·h/mL. For the same compound, the Cmax [1, 5] was 2060 ng/mL, the half-life ([1]; both sexes, Sprague Dawley SPF, 36 mg/kg, rats po 36 mg/kg single, 28-day tox study, read-out: t½ (converted)) was 9.8 h and the AUC(0-t) [1, 6] was 18200 ng·h/mL. The Cmax [1, 6] was 1660 ng/mL, the half-life ([1]; both sexes, Sprague Dawley SPF, 65 mg/kg, rats po 65 mg/kg single, 91-day tox study, read-out: t½ (converted)) was 10.4 h and the Tmax ([1]; both sexes, Sprague Dawley SPF, rats po 9 mg/kg single, 28-day tox study) was 3 h. The Tmax ([1]; both sexes, Sprague Dawley SPF, rats po 20 mg/kg single, 91-day tox study) was 3 h, the Tmax ([1]; both sexes, Sprague Dawley SPF, rats po 36 mg/kg single, 28-day tox study) was 3 h and the Tmax ([1]; both sexes, Sprague Dawley SPF, rats po 65 mg/kg single, 91-day tox study) was 3 h. For the same compound, the AUC(0-t) [1, 7] was 1450 ng·h/mL, the Cmax [1, 7] was 106 ng/mL and the half-life ([1]; both sexes, Sprague Dawley, 2 mg/kg, rats po 2 mg/kg single, 28-day tox study, read-out: t½ (converted)) was 8 h. It also gave an AUC(0-t) [1, 8] of 1210 ng·h/mL, a Cmax [1, 8] of 86.3 ng/mL and a half-life ([1]; both sexes, Sprague Dawley, 2 mg/kg, rats po 2 mg/kg single, 91-day tox study, read-out: t½ (converted)) of 7.7 h. The Cmax ([1]; both sexes, Sprague Dawley, 9 mg/kg, rats po 9 mg/kg single, 28-day tox study) was 578 ng/mL, the Tmax ([1]; both sexes, Sprague Dawley, rats po 2 mg/kg single, 28-day tox study) was 4 h and the “time to steady state” value ([1]; rats and dogs, repeated administration) was “approximately 14 days”. For the same compound, the “binding activity at 85 receptors” value (85 receptors) was “did not modify binding to any receptor”, the “change in thymus weight, absolute value” (rats; female rats, 65 mg/kg/day, Day 122, vs vehicle) was -17% and the “change in blood urea level” value (rats; 20 mg) was “+13%”. For the same compound, the “change in blood urea level” value (rats; 65 mg) was “+10%”, the NOAEL at 91 day ([2]; oral, 91-day, highest dose tested) was 65 mg/kg/day and the NOAEL at 91 d ([2]; 91-d repeated oral) was > 65 mg/kg/day.
